According to US7776862B2, “Pyridyl and phenyl substituted piperazine-piperidines with CXCR3 antagonist activity” (Schering Corporation, priority 2005, dated 2010):

These compounds were tested against T1, human CXCR3 (N-delta 4) (Homo sapiens, UniProt P49682) (assay: Human CXCR3 (N-delta 4) scintillation proximity assay (SPA), [125I] IP-10 binding). Settings: IC50 rating; Ba/F3-hCXCR3 (N-delta 4) membranes, 25 pM [125I] IP-10.
T1 construct: CD8 leader; Flag tag; expressed in transfected cells; membranes used
T1 sequence (P49682 5-368 limits assumed): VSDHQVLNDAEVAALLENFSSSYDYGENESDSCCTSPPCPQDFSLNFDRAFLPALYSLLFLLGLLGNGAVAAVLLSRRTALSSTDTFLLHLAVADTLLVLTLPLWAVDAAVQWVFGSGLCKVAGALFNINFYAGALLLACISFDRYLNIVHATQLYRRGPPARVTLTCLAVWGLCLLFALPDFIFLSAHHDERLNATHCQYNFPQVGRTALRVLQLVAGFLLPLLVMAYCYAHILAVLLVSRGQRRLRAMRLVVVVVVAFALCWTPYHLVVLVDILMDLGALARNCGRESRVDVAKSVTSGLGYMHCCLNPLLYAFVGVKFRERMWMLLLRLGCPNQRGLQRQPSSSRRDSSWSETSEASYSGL
Outline: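 Membranes from mouse Ba/F3 pro-B cells stably expressing Flag-tagged human CXCR3 (N-delta 4) were coupled to SPA beads. IP-10 was added together with titrated compounds to start the reaction, and bound radioligand was read by scintillation proximity.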

IC50 | SMILES
25 to 100 nM | CC[C@H]1CN(c2ncc(CN(C3CC3)S(C)(=O)=O)cc2Cl)CCN1C1CCN(Cc2ccc(Cl)cc2F)CC1 [compound 414]
25 to 100 nM | CCOC(=N)c1cnc(N2CCN(C3CCN(Cc4ccc(Cl)cc4F)CC3)[C@@H](CC)C2)c(Cl)c1 [compound 415]
25 to 100 nM | CC[C@H]1CN(c2ncc(CN)cc2Cl)CCN1C1CCN(Cc2ccc(Br)cc2F)CC1 [compound 421]
25 to 100 nM | CCOC(CNC(=N)c1cnc(N2CCN(C3CCN(Cc4ccc(Cl)cc4F)CC3)[C@@H](CC)C2)c(Cl)c1)OCC [compound 422]
25 to 100 nM | CCOCc1cnc(N2CCN(C3CCN(Cc4ccc(Cl)cc4F)CC3)[C@@H](CC)C2)c(Cl)c1 [compound 424]
25 to 100 nM | CC[C@H]1CN(c2ncc(CN)cc2Cl)CCN1C1CCN(Cc2ccc(Cl)cc2F)CC1 [compound 425]
25 to 100 nM | CC[C@H]1CN(c2ncc(C(C)=O)cc2Cl)CCN1C1CCN(Cc2ccc(Cl)cc2F)CC1 [compound 427]
25 to 100 nM | CC[C@H]1CN(c2ncc(C(=O)c3ncco3)cc2Cl)CCN1C1CCN(Cc2ccc(Cl)cc2F)CC1 [compound 428]
25 to 100 nM | CCNC(=N)c1cnc(N2CCN(C3CCN(Cc4ccc(Cl)cc4)CC3)[C@@H](C)C2)c(Cl)c1 [compound 430]
> 100 nM | CC[C@H]1CN(c2ncc(C(C)O)cc2Cl)CCN1C1CCN(Cc2ccc(Cl)cc2F)CC1 (some centres unmarked) [compound 433]
> 100 nM | CCNC(=O)OC(C)c1cnc(N2CCN(C3CCN(Cc4ccc(Cl)cc4F)CC3)[C@@H](CC)C2)c(Cl)c1 (some centres unmarked) [compound 434]
> 100 nM | CC[C@H]1CN(c2ncc(CNS(=O)(=O)C(F)(F)F)cc2Cl)CCN1C1CCN(Cc2ccc(Cl)cc2F)CC1 [compound 443]
> 100 nM | CC[C@H]1CN(c2ncc(CN(C(=O)Nc3c(C)noc3C)C(=O)Nc3c(C)noc3C)cc2Cl)CCN1C1CCN(Cc2ccc(Cl)cc2F)CC1 [compound 445]
> 100 nM | CC[C@H]1CN(c2ncc(CO)cc2Cl)CCN1C1CCN(C(=O)c2ccccc2)CC1 [compound 448]
> 100 nM | CCOC(CNC(=N)c1cnc(N2CCN(C3CCN(C(=O)c4ccc(Cl)cc4)CC3)[C@@H](CC)C2)c(Cl)c1)OCC [compound 453]
> 100 nM | CC[C@H]1CN(c2ncc(C(=O)OC)cc2Cl)CCN1C1CCN(C(=O)c2ccc(Br)cc2)CC1 [compound 454]
> 100 nM | CC[C@H]1CN(c2ncc(C(=O)OC)cc2Cl)CCN1C1CCN(C(=O)c2ccc(-n3cccc3)cc2)CC1 [compound 457]
< 25 nM | CC[C@H]1CN(c2ncc(C(=O)NC3CC3)cc2C)CCN1C1CCN(C(=O)c2ccc(Cl)cc2)CC1 [compound 461]

The remaining lines, values behind:

SMILES | IC50
CC[C@H]1CN(c2ncc(CNS(=O)(=O)CC(F)(F)F)cc2Cl)CCN1C1CCN(Cc2ccc(Cl)cc2F)CC1 [compound 416] | 25 to 100 nM
CC[C@H]1CN(c2ncc(CNC(=O)Nc3c(C)noc3C)cc2Cl)CCN1C1CCN(Cc2ccc(Cl)cc2F)CC1 [compound 417] | 25 to 100 nM
CC[C@H]1CN(c2ncc(CO)cc2Cl)CCN1C1CCN(C(=O)c2ccc(Br)cc2)CC1 [compound 418] | 25 to 100 nM
CC[C@H]1CN(c2ncc(C(=O)C3CC3)cc2Cl)CCN1C1CCN(Cc2ccc(Cl)cc2F)CC1 [compound 419] | 25 to 100 nM
CC[C@H]1CN(c2ncc(COC(=O)Nc3ccc(F)cc3)cc2Cl)CCN1C1CCN(Cc2ccc(Cl)cc2F)CC1 [compound 420] | 25 to 100 nM
CCNC(=O)N(Cc1cnc(N2CCN(C3CCN(Cc4ccc(Cl)cc4F)CC3)[C@@H](CC)C2)c(Cl)c1)C1CC1 [compound 423] | 25 to 100 nM
CC[C@H]1CN(c2ncc(C(=N)NN)cc2Cl)CCN1C1CCN(Cc2ccc(Cl)cc2F)CC1 [compound 426] | 25 to 100 nM
C[C@H]1CN(c2ncc(C(=N)N)cc2Cl)CCN1C1CCN(Cc2ccc(Cl)cc2)CC1 [compound 429] | 25 to 100 nM
CC[C@H]1CN(c2ncc(CNC3=NCCN3)cc2Cl)CCN1C1CCN(Cc2ccc(Cl)cc2F)CC1 [compound 431] | 25 to 100 nM
CC[C@H]1CN(c2ncc(CN(C(=O)N(C)C)C3CC3)cc2Cl)CCN1C1CCN(Cc2ccc(Cl)cc2F)CC1 [compound 432] | 25 to 100 nM
CC[C@H]1CN(c2ncc(C(=O)OC)cc2Cl)CCN1C1CCN(Cc2ccc(Br)cc2F)CC1 [compound 435] | > 100 nM
CC[C@H]1CN(c2ncc(C(=O)O)cc2Cl)CCN1C1CCN(Cc2ccc(Cl)cc2F)CC1 [compound 436] | > 100 nM
CC[C@H]1CN(c2ncc(C(O)c3ncco3)cc2Cl)CCN1C1CCN(Cc2ccc(Cl)cc2F)CC1 (some centres unmarked) [compound 437] | > 100 nM
CC[C@H]1CN(c2c(Cl)cc(C(=O)OC)c[n+]2[O-])CCN1C1CCN(Cc2ccc(Cl)cc2F)CC1 [compound 438] | > 100 nM
CC/N=C(/NCC)c1cnc(N2CCN(C3CCN(Cc4ccc(Cl)cc4)CC3)[C@@H](C)C2)c(Cl)c1 [compound 439] | > 100 nM
C[C@H]1CN(c2ncc(CN)cc2Cl)CCN1C1CCN(Cc2ccc(Cl)cc2)CC1 [compound 440] | > 100 nM
CC[C@H]1CN(c2ncc(C(=O)OC)c(N)c2Cl)CCN1C1CCN(Cc2ccc(Cl)cc2F)CC1 [compound 441] | > 100 nM
CC[C@H]1CN(c2ncc(C(=N)N)cc2Cl)CCN1C1CCN(C(=O)c2ccc(Cl)nc2N)CC1 [compound 442] | > 100 nM
CCC(=NO)c1cnc(N2CCN(C3CCN(Cc4ccc(Cl)cc4F)CC3)[C@@H](CC)C2)c(Cl)c1 [compound 444] | > 100 nM
CC[C@H]1CN(c2ncc(C(C)(C)O)cc2Cl)CCN1C1CCN(Cc2ccc(Cl)cc2F)CC1 [compound 446] | > 100 nM
CC[C@H]1CN(c2ncc(C(=O)OC)cc2Cl)CCN1C1CCN(Cc2ccc(F)cc2C(F)(F)F)CC1 [compound 447] | > 100 nM
COC(=O)c1cnc(N2CCN(C3CCN(Cc4ccc(F)cc4)CC3)[C@@H](C)C2)c(Cl)c1 [compound 449] | > 100 nM
CC[C@H]1CN(c2ncc(C(C)N)cc2Cl)CCN1C1CCN(Cc2ccc(Cl)cc2F)CC1 (some centres unmarked) [compound 450] | > 100 nM
CC[C@H]1CN(c2ncc(C(C)OC(C)=O)cc2Cl)CCN1C1CCN(Cc2ccc(Cl)cc2F)CC1 (some centres unmarked) [compound 451] | > 100 nM
CC[C@H]1CN(c2ccc(CN)cn2)CCN1C1CCN(Cc2ccc(Cl)cc2)CC1 [compound 452] | > 100 nM
CCC(=NOC)c1cnc(N2CCN(C3CCN(Cc4ccc(Cl)cc4F)CC3)[C@@H](CC)C2)c(Cl)c1 [compound 455] | > 100 nM
COC(=O)c1ccc(N2C[C@H](C)N(C3CCN(Cc4ccc(Cl)cc4F)CC3)C[C@H]2C)nc1 [compound 456] | > 100 nM
CC[C@H]1CN(c2c(Cl)cc(C(=O)OC)c[n+]2[O-])CCN1C1CCN(Cc2ccc(Cl)cc2F)CC1 [compound 458] | 25 to 100 nM
CC[C@H]1CN(c2ncc(C(N)=O)cc2Cl)CCN1C1CCN(Cc2ccc(Cl)cc2N2CCOC2=O)CC1 [compound 460] | 25 to 100 nM
